This is an account of results in patent publication US11054425B2, “System and method for identification and characterization of transglutaminase species” (Roche Sequencing Solutions, Inc., priority 2014, dated 2021).

The test system of assay [1] is KalbTG. In words: 5-mer peptide array, glutamine-substrate screening with biotinylated amine donor. The following applies: incorporation of biotinylated amine-donor on 5-mer peptide array. The format is biochemical, Kutzneria albida. As to the method: To identify potential acyl-donor and amine-donor substrates of the K. albida transglutaminase, high-throughput screening on 5-mer peptide arrays was performed (FIGS. 4A and 4B). An activity of at least 1.65 U/mg for both the SlyD-fused and the mature KalbTG enzymes was confirmed by commercial assay (Zedira MTG-ANiTA-KIT; compared to 4.3 U mg^−1 by the MTG supplied with the kit and a 0.07 U/mg blank value with BSA). The assay used β-casein as a cross-linking substrate and detected deamidation by a glutamate dehydrogenase dependent oxidation of NADPH. Specific recognition motifs were identified by assaying KalbTG with peptide arrays prepared by maskless array synthesis (U.S. Pat. Pub. No 2015/0185216 to Albert et al. filed on 19 Dec. 2014). The efficiency of the transamidation reaction between 1.4 million unique 5-mer peptides and a biotinylated amine donor was quantified on two arrays in parallel and the sequences of the peptides with the highest turnovers were determined (FIG. 4A). The nine best peptides were resynthesized and tested for KalbTG activity in a standalone GLDH-coupled assay. Note that the array signal for the sequence MLAQG (SEQ ID NO:13) is marked not applicable (n. a.) as this sequence was not included on the array. Similarly, measurement of a background signal was only applicable to experiments performed on the array.
For construction of the peptide array, a library of 1,360,732 unique 5-mer peptides was designed by using all combinations of 18 natural amino acids excluding cysteine and methionine, as well as any dimer or a longer repeat of the same amino acid, and any peptide containing a dipeptide selected from HR, RH, HK, KH, RK, KR, HP, and PQ sequences. The library was synthesized in duplicate on the same array by using maskless light-directed peptide array synthesis. Each 5-mer peptide was flanked on both the N-terminus and C-terminus by 3 amino acid-long linkers synthesized by using mixture of glycine and serine having a 3:1 ratio.
To test KalbTG specificity for glutamine-containing substrate, N-(biotinyl)cadaverine was used as a substitute for a lysine substrate to biotinylate glutamine-peptides on a peptide array. KalbTG labeling reaction was performed in 1200 μL 100 mM Tris-HCl pH 8, 1 mM DTT, 50 μM N-(biotinyl)cadaverine, 0.2 ng μl^−1 KalbTG in SecureSeal™ chamber (Grace Bio-Labs) at 37° C. for 45 minutes. After incubation the chamber was removed and the array was washed in 20 mM Tris-HCl, pH7.8, 0.2 M NaCl, 1% SDS for 1 minute followed by a 1 minute wash in 20 mM Tris-HCl. Biotin linked to the array was stained with 0.3 μg ml^−1 Cy5-streptavidin in 10 mM Tris-HCl, pH7.4, 1% alkali-soluble casein, 0.05% TWEEN-20 non-ionic detergent at room temperature for 1 hour. Cy5 fluorescence intensity was measured with a fluorescence scanner at a resolution of 2 μm and a wavelength of 635 nm.

Assay [2] concerns KalbTG. In words: GLDH-coupled assay in solution (NADH oxidation). The format is biochemical, Kutzneria albida. Conditions: kinetics, varying substrate concentrations. On the procedure: KalbTG activity was obtained by measuring incorporation of a biotinylated amine-donor on the peptide array and rates of NADH oxidation at 340 nm and 37° C. in the presence of amine-donor substrate (500 μM) in the GLDH-coupled assay using 100 μM each of nine of the best-performing array-selected glutamine-containing substrates and of two S. mobaraensis MTG glutamine-containing substrates. […] Testing of the top sequences in Table 1 confirmed YRYRQ (SEQ ID NO: 1) and RYRQR (SEQ ID NO 14) as the top performing 5-mer substrates, with turnover rates of 3.52±0.08 pmol NADH s^−1 and 3.60±0.12 pmol NADH s^−1, respectively.
With reference to Table 2, KalbTG activity was obtained by measuring incorporation of a biotinylated glutamine-donor and rates of NADH oxidation at 340 nm and 37° C. in the presence of glutamine-donor substrate (200 μM) in the GLDH-coupled assay using 100 μM each of i) six of the top-performing array-selected lysine substrates, ii) cadaverine, and iii) preferred MTG lysine substrate ARSKL (SEQ ID NO:30). […] This is a small but significant increase over cadaverine (3.51±0.12 pmol s^−1) or ARSKL (SEQ ID NO:30) (3.87±0.31 pmol s^−1), a peptide previously established as a preferred MTG lysine donor motif on the peptide array. Additional details on the S. mobaraensis MTG substrate peptide ARSKL (SEQ ID NO:30) can be found in U.S. Provisional Patent Application Ser. No. 62/094,495 to Albert et al. filed on Dec. 19, 2014.
(§1) For the GLDH coupled assay, to determine whether the KalbTG peptides selected in the array assay were also preferred substrates in a solution reaction and to quantify cross-reactivity of KalbTG and S. mobaraensis MTG with various substrates, a continuous glutamate dehydrogenase (GLDH)-coupled assay for S. mobaraensis MTG activity (see Oteng-Pabi, et al., 2013. Analytical biochemistry 441(2): 169-173) was applied.
(§2) For glutamine substrate evaluation, the assay was performed in a transparent 96-well microtiter plate in the presence of 500 μM α-ketoglutarate, 500 μM or 1 mM cadaverine as Amine donor substituting for a lysine-containing peptide, 2 U ml^−1 of glutamate dehydrogenase (GLDH), 500 μM NADH and glutamine-containing substrate peptide (Z-[[…] (SEQ ID NO:77)], Z-[[…] (SEQ ID NO:78)], Z-[[…] (SEQ ID NO:75)], Z-[[…] (SEQ ID NO:79)], Z-[[…] (SEQ ID NO:80)], Z-[[…] (SEQ ID NO:81)], Z-[[…] (SEQ ID NO:82)], Z-[[…] (SEQ ID NO:83)], Z-[[…] (SEQ ID NO:84)], Z-[[…] (SEQ ID NO:85)], Z-[[…] (SEQ ID NO:86)], Z-[[…] (SEQ ID NO:76)] or Z-[[…] (SEQ ID NO:87)]) concentrations ranging between 0 and 1 mM in 200 mM MOPS, 1 mM EDTA pH 7.2 (total volume per well 200 μl).
For amine substrate evaluation, assay conditions were the same as for glutamine substrate evaluation with the exception that 100 μM each of amine substrate (Z-[[…] (SEQ ID NO:88)], Z-[[…] (SEQ ID NO:89)], Z-[[…] (SEQ ID NO:90)], Z-[[…] (SEQ ID NO:91)], Z-[[…] (SEQ ID NO:92)], Z-[[…] (SEQ ID NO:93)], Z-[[…] (SEQ ID NO:94)], Z-[[…] (SEQ ID NO:95)] or cadaverine) and 200 μM glutamine donor (Z-[[…] (SEQ ID NO:75)] or Z-[[…] (SEQ ID NO:76)]) were used.
Reactions were started by the addition of 5 μg ml^−1 of S. mobaraensis MTG or KalbTG and the oxidation of NADH was continuously recorded at 340 nm for 60 minutes using a Biotek Synergy H4 microplate reader, temperature controlled at 37° C., with short shaking intervals before each measurement. After a short lag phase where the GLDH was saturated by transglutaminase-mediated release of ammonia, linear rates of absorbance versus time corresponding to transglutaminase turnover were observed and subjected to Michaelis-Menten kinetic analysis. […]

Assay [3] relates to S. mobaraensis MTG. In words: GLDH-coupled assay in solution (NADH oxidation). The following applies: enzyme MTG; glutamine-donor 0 to 1 mM, cadaverine 1 mM, 37° C. The class given is biochemical, Streptomyces mobaraensis. On the procedure: as §1, §2
Reactions were started by the addition of 5 μg ml^−1 of S. mobaraensis MTG or KalbTG and the oxidation of NADH was continuously recorded at 340 nm for 60 minutes using a Biotek Synergy H4 microplate reader, temperature controlled at 37° C., with short shaking intervals before each measurement. After a short lag phase where the GLDH was saturated by transglutaminase-mediated release of ammonia, linear rates of absorbance versus time corresponding to transglutaminase turnover were observed and subjected to Michaelis-Menten kinetic analysis. Rates of absorbance in millioptical density units per minute (mOD min^−1) were converted into molar rates of NADH turnover (pmol s^−1) using the formula of Equation 1 (previously determined by an NADH standard curve): Turnover rate=|Absorbance rate|*1.111 (Eq. 1)

Assay [4] relates to Z-[GGGYRYRQGGGG (SEQ ID NO:75)]-OH. Kind of assay: GLDH assay of transglutaminase enzyme activity after storage. The following applies: 200 μM glutamine substrate, 10 mM cadaverine, 37° C., pH 7.4. The class given is biochemical. As to the method: A further experiment was performed to determine the activity of KalbTG enzymes prepared from two different constructs, and stored at two different temperatures. The KalbTGt3 (SEQ ID NO:10) and KalbTGt1 (SEQ ID NO: 12) enzymes tested were obtained respectively from the EcSlyD2-Xa-KalbTGt3-8×His-tag construct (SEQ ID NO:8) and the EcSlyD2-Xa-KalbTGt1-8×His-tag construct (SEQ ID NO:11) described in Example 3. The activity of the two KalbTG enzymes was tested after storage at either 4° C. or −20° C. and compared against the activity of commercially available S. mobaraensis MTG according to a published protocol (Oteng-Pabi, et al., 2013. Analytical biochemistry 441(2): 169-173). In particular, assays were performed at 37° C. in 200 μl total volume. The assay mixture included 200 mM MOPS, 1 mM EDTA, and 1 mM DTT at pH 7.4. Further, α-ketoglutarate and NADH were added at a concentration of 500 μM, along with 2 U/ml GLDH, and between 0.1 μg and 1.0 μg of one of the transglutaminase enzymes. The glutamine substrate was 200 μM Z-[[…] (SEQ ID NO:75)]-OH, and the amine donor was 10 mM cadaverine, where Z represents a carboxybenzyl group. All data were collected in triplicate (average of 3 wells in a microtiter plate) and baseline activity (buffer without enzyme) subtracted.

No end group written: not given here. *: point of attachment. Cbz = O=C(OCc1ccccc1)*

As for “DYALQ (Cbz-DYALQ) [preferred S. mobaraensis MTG glutamine-containing substrate, reference compound]”, in assay [1], the “Array signal (log2)” value amounted to 7.22 log2. In addition, the “reactivity of KalbTG towards substrate” value in assay [2] is recorded as “completely unreactive”. Further, in assay [3], the Km (in general, the substrate concentration at which the rate is half of its maximum) is 847 ± 138 µM; the maximum rate (Vmax) (commonly the top rate of the reaction or transport when substrate is in excess) was 36.66 ± 3.33 pmol/s; the kcat came out at 1.39 S^−1.

B1: KalbTGt1: KalbTG enzyme without propeptide, expressed and purified with ammonium (protein)
chain: MLAPPLAEDRSYRTWRVEDYVEAWERYHGREMTEDERENLARGCIGVTVVNLNREDLSNPPLNLSFGSLRTAEAVQAALNKIVDTHPSPAQYEAAVAKDPILKRLKNVVKALPSWIDSAKLKASIFSKRFYSWQNPDWSEERAHTTYRPDRETDQVDMSTYRYRARPGYVNFDYGWFDQDTNTWWHANHEEPRMVVYQSTLRHYSRPLQDFDEQVFTVAFAKKDGHHHHHHHH
modifications: synthetic peptide sequence - KalbTGt1-8xHis; K-albida_MTG; 8xHis-tag
notes: KalbTG enzyme without propeptide, expressed and purified with ammonium
Consider B1, for which the Activity in assay [4] (storage 4 ° C.) was 1.4099 ± 0.1806 μmol NH3/min/mg Enzyme; in assay [4] (storage −20 ° C.) it was 0.8630 ± 0.0259 μmol NH3/min/mg Enzyme.

B2: S. mobaraensis MTG: commercially available Streptomyces mobaraensis microbial transglutaminase (protein)
chain: MRIRRRALVFATMSAVLCTAGFMPSAGEAAADNGAGEETKSYAETYRLTADDVANINALNESAPAASSAGPSFRAPDSDDRVTPPAEPLDRMPDPYRPSYGRAETVVNNYIRKWQQVYSHRDGRKQQMTEEQREWLSYGCVGVTWVNSGQYPTNRLAFASFDEDRFKNELKNGRPRSGETRAEFEGRVAKESFDEEKGFQRAREVASVMNRALENAHDESAYLDNLKKELANGNDALRNEDARSPFYSALRNTPSFKERNGGNHDPSRMKAVIYSKHFWSGQDRSSSADKRKYGDPDAFRPAPGTGLVDMSRDRNIPRSPTSPGEGFVNFDYGWFGAQTEADADKTVWTHGNHYHAPNGSLGAMHVYESKFRNWSEGYSDFDRGAYVITFIPKSWNTAPDKVKQGWP
modifications: protein-glutamine gamma-glutamyltransferase
notes: commercially available Streptomyces mobaraensis microbial transglutaminase
In assay [4] (storage −20 ° C.), B2 returned an Activity of 1.1348 ± 0.0059 μmol NH3/min/mg Enzyme.

B3: KalbTGt3: KalbTG enzyme from EcSlyD2-Xa-KalbTGt3-8×His after factor Xa and trypsin digest (protein)
chain: APLAPPLAEDRSYRTWRVEDYVEAWERYHGREMTEDERENLARGCIGVTVVNLNREDLSNPPLNLSFGSLRTAEAVQAALNKIVDTHPSPAQYEAAVAKDPILKRLKNVVKALPSWIDSAKLKASIFSKRFYSWQNPDWSEERAHTTYRPDRETDQVDMSTYRYRARPGYVNFDYGWFDQDTNTWWHANHEEPRMVVYQSTLRHYSRPLQDFDEQVFTVAFAKKDGGGSGHHHHHHHH
modifications: synthetic peptide sequence - KalbTGt3-8xHis-tag (post-trypsin digest); K-albida_MTG; 8xHis-tag
notes: KalbTG enzyme from EcSlyD2-Xa-KalbTGt3-8×His after factor Xa and trypsin digest
For B3, the Activity was determined as 0.1501 ± 0.0011 μmol NH3/min/mg Enzyme in assay [4] (storage 4 ° C.) and 0.1528 ± 0.0400 μmol NH3/min/mg Enzyme in assay [4] (storage −20 ° C.).
